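Dose response: 5 concentrations. Exposure: 48 h. Format: 96-well plates. Endpoint: linear interpolation; highest concentration if not reached. GI50 is the concentration that inhibits growth by half. TGI: concentration producing complete growth inhibition.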
Columns and labels:
Assay in all cases: inhibition of tumour cell growth, NCI panel, 48 h
UO-31 renal = test system: UO-31 renal
SNB-75 CNS = test system: SNB-75 CNS
MOLT-4 leukemia = test system: MOLT-4 leukemia
U251 CNS = test system: U251 CNS
HCT-116 colon = test system: HCT-116 colon
HCT-15 colon = test system: HCT-15 colon
RPMI-8226 leukemia = test system: RPMI-8226 leukemia
IGROV1 ovarian = test system: IGROV1 ovarian
A498 renal = test system: A498 renal
RXF 393 renal = test system: RXF 393 renal

Row | SMILES | TGI (UO-31 renal) [µM] | TGI (SNB-75 CNS) [µM] | TGI (MOLT-4 leukemia) [µM] | TGI (U251 CNS) [µM] | TGI (HCT-116 colon) [µM] | TGI (HCT-15 colon) [µM] | TGI (RPMI-8226 leukemia) [µM] | TGI (IGROV1 ovarian) [µM] | TGI (A498 renal) [µM] | TGI (RXF 393 renal) [µM] | GI50 (RXF 393 renal) [µM] | GI50 (UO-31 renal) [µM] | GI50 (SNB-75 CNS) [µM] | GI50 (MOLT-4 leukemia) [µM] | GI50 (U251 CNS) [µM] | GI50 (HCT-116 colon) [µM] | GI50 (HCT-15 colon) [µM] | GI50 (RPMI-8226 leukemia) [µM] | GI50 (IGROV1 ovarian) [µM] | GI50 (A498 renal) [µM]
1 | N.N.N.O=[N+]([O-])[O-].O=[N+]([O-])[O-].O=[N+]([O-])[O-].O=[N+]([O-])[O-].[Co+3] | > 100 | > 100 | > 100 | > 100 | > 100 | > 100 | > 100 | > 100 | > 100 |  |  |  |  |  |  |  |  |  |  | 
2 | COC(=O)C1C(C(=O)OC)N(Cc2ccccc2)C(=O)N1Cc1ccccc1 (centres undefined) | > 100 | > 100 | > 100 | > 100 | > 100 |  | > 100 | > 100 |  | > 100 |  |  |  |  |  |  |  |  |  | 
3 | CCOC(=O)c1csc(NC(=O)CCN(CC)CC)n1 | > 100 | 73.5 | 90.3 | > 100 |  | 75.3 | > 100 | > 100 | > 100 | > 100 |  |  |  |  |  |  |  |  |  | 
4 | C#CCCCCC#Cc1ccccc1C(=O)OC | > 100 | 86.5 | 38.3 | > 100 | 23 | > 100 | 41.5 | > 100 | > 100 | 95.1 |  |  |  |  |  |  |  |  |  | 
5 | CCCc1cc(=O)c2c(C)c3[nH]c4ccc(Cl)cc4c3c(C)c2[nH]1 | 3.34 | 7.93 | > 100 | 3.65 | 3.09 | 3.37 |  | 4.7 | 2.92 | 3.86 |  |  |  |  |  |  |  |  |  | 
6 | O=C(O)CC/C(=N\Nc1nsc2ccccc12)c1ccccc1 | > 100 | 61.3 | 91.6 | > 100 | > 100 | > 100 | 49.6 | > 100 |  | > 100 |  |  |  |  |  |  |  |  |  | 
7 | C=C(C(=O)C(=O)Oc1ccc(Cl)cc1)C(=O)c1ccc(C)cc1 | > 100 | > 100 | > 100 | 46.2 | 30.3 | > 100 | > 100 | > 100 | > 100 | 79.3 |  |  |  |  |  |  |  |  |  | 
8 | C/C(CCOC1CCCCO1)=C(\C)[Si](C)(C)C (centres undefined) | > 100 | > 100 | > 100 | > 100 | > 100 | > 100 | > 100 | > 100 | > 100 |  |  |  |  |  |  |  |  |  |  | 
9 | CC(C)OP(=O)(OC(C)C)c1c(Nc2ccccc2)n[nH]c1N | > 100 | > 100 | > 100 | > 100 |  | > 100 | > 100 | > 100 | > 100 | > 100 |  |  |  |  |  |  |  |  |  | 
10 | O=C1C(Cl)=C(N2CCN(C3=C(Cl)C(=O)c4ccccc4C3=O)CC2)C(=O)c2ccccc21 | 3.39 | 9.86 | 1.69 | 6.19 | 2.76 | 3.07 | 14 | 4.11 | 13.7 | 3.02 |  |  |  |  |  |  |  |  |  | 
11 | COCCOCOc1ccc(OCc2ccccc2)cc1 | > 100 | > 41.1 | > 100 | > 100 | > 100 | > 100 | > 100 | > 100 | 99.5 | > 100 |  |  |  |  |  |  |  |  |  | 
12 | CCN1c2ccccc2-n2c(C)nnc2-c2c1n[nH]c2-c1ccccc1 | > 100 | > 100 | 50.7 | 46.8 | > 100 | > 100 | 82.3 | > 100 |  | > 100 |  |  |  |  |  |  |  |  |  | 
13 | CN(C)CCCOc1nc2c(c(=O)n(C)c(=O)n2C)n1C (tested in a mixture with another compound) | > 100 | > 100 | 13.9 | > 100 | > 100 | 42.9 | > 100 | > 100 | > 100 | > 100 |  |  |  |  |  |  |  |  |  | 
14 | CC1=C(O)C(=O)[C@@H]2O[C@@H]2C1=O | 54.1 | 31.9 | 10.9 | 46.3 | 27.8 | 22 | 16.5 | 48.4 | 17.1 | 7.88 |  |  |  |  |  |  |  |  |  | 
15 | C=CCN1C(=O)/C(=C/c2ccccc2)N=C1SC1OC(COC(=O)c2ccccc2)C(OC(=O)c2ccccc2)C1OC(=O)c1ccccc1 (centres undefined) |  | > 100 | > 100 | > 100 |  | > 100 | 87.9 | > 100 | > 100 | > 100 |  |  |  |  |  |  |  |  |  | 
16 | COc1ccc2[nH]c(O)c(/C=c3/cc4c(c(-c5cc(OC)c(OC)c(OC)c5)n3)=Nc3ccccc3-4)c2c1 | > 100 | > 100 | 10.7 | > 100 | 64.7 | > 100 | 11.5 | > 100 | 8.72 | 41.9 | 2.41 | 6.62 | 26.7 | 1.94 | 3.53 | 3.49 | 5.3 | 1.89 | > 100 | 1.7
